The subject of test [1] is Hem-A plasma. In words: dPT assay, TFPI titrated into FVIII deficient (Hem-A) plasma. The test is classed as biochemical, human. The method, then: (§1) The dPT assay used was a modified standard clinical PT assay (Nordfang et al. (1991) Thromb Haemost 66:464-467; Welsch et al. (1991) Thrombosis Research 64: 213-222). SIMPLASTIN EXCEL thromboplastin reagent (Organon Teknika) was reconstituted with the manufacturer's diluent and further diluted 1:100 in 0.9% saline. The thromboplastin reagent, 25 mM CaCl2, and plasma samples were pre-warmed to 37° C. before initiating the assay. 100 μl of thawed plasma was aliquoted into microcentrifuge tubes. […] 100 μl of the diluted thromboplastin reagent and 100 μl of 25 mM CaCl2 were added to fibrin cups (Fisher) prewarmed to 37° C. 100 μl of plasma (normal or hemophilic) containing the test agent or saline control was added to the fibrin cups containing the thromboplastin reagent and CaCl2 to initiate clotting. The time for plasma clotting was measured with a BBL FIBROSYSTEM fibrometer.
A 100 μg/mL TFPI stock solution (American Diagnostica, Stamford, Conn.) was sequentially diluted in saline to generate TFPI solutions at the following concentrations: 20, 15, 10, 6, and 2 μg/mL. 5 μl of these TFPI dilutions were mixed with 95 μl of FVIII deficient plasma and incubated at room temperature for 30 minutes. dPT assays were performed as follows: SIMPLASTIN thromboplastin was diluted 1:100 in saline and prewarmed to 37° C. 25 mM CaCl2 and 100 μl of test plasma containing TFPI was prewarmed to 37° C. 100 μl SIMPLASTIN thromboplastin and 100 μl of CaCl2 were mixed and clotting time was measured using a BBL fibrometer.

Test [2] deals with T1, TFPI (Homo sapiens, UniProt P10646).
T1 construct: purchased American Diagnostica (Stamford, Conn.)
T1 sequence (P10646 29-304): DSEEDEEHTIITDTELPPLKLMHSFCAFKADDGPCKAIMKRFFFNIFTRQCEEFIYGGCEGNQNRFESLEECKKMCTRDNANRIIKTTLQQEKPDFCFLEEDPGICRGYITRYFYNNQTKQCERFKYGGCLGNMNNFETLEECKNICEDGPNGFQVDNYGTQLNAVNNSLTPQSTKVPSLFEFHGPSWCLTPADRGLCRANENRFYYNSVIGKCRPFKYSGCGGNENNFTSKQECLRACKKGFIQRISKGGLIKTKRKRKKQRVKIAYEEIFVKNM
In words: dPT assay, inhibition of TFPI activity in Hem-A plasma, TFPI preincubated with NASP. Type of test: biochemical. Particulars: TFPI approximately 0.5 μg/ml. The method, then: as §1
(§2) Inhibition of TFPI activity by NASPs was assessed in dPT clotting assays with normal or hemophilic plasma and added recombinant TFPI. Diluted recombinant TFPI was preincubated with NASPs for 5 minutes at room temperature before plasma was added. After addition of plasma, the mixture was incubated for an additional 25 minutes followed by dPT initiation.

Test [3] deals with T1, TFPI. In words: dPT assay, inhibition of TFPI activity in Hem-B plasma, TFPI preincubated with NASP. Particulars: no NASP; Hem-B alone 46 seconds. The test is classed as biochemical. The method, then:
as §1, §2
The acceleration of plasma clotting by the NASPs in the presence of TFPI was also tested in Hem-B and normal plasma.

Test [4] has as its target T1, TFPI. In words: dPT assay, inhibition of TFPI activity in Hem-A plasma without preincubation. Type of test: biochemical. Particulars: no NASP; Hem-A alone 45 seconds. As to the method: as §1
Experiments were repeated without a preincubation of the sulfated polysaccharides with TFPI prior to exposure to plasma. To extend the stringency of the test for NASP inhibition of TFPI activity, TFPI was added to the plasma before the NASP was added.

In the case of “TFPI: human recombinant TFPI from American Diagnostica”, the Clotting time in test [1] (TFPI 0.1 μg/mL in plasma) is 60 s; in test [1] (TFPI 0.3 μg/mL in plasma), 94 s; in test [1] (TFPI 0.5 μg/mL in plasma), 98 s; in test [1] (TFPI 0.75 μg/mL in plasma) it was 173 s; in test [1] (TFPI 1 μg/mL in plasma), greater than 200 s. Also, in test [2] (from approximately 40 seconds, depending on experiment and source of plasma), the “clotting time of plasma with TFPI” value was 100 to 200 s. The “Clotting time of Hem-A plasma + TFPI” value in test [2] (no NASP, plasma alone 44 seconds) is listed as “Clotting time of Hem-A plasma + TFPI is 151 seconds”. Also, the “Clotting time of Hem-B + TFPI” value in test [3] was “Clotting time of Hem-B + TFPI: 101 seconds”. The “Clotting time HemA + TFPI” value in test [4] is “HemA + TFPI: 183 seconds”.

The values are drawn from US8771973B2, “Methods for treating bleeding disorders using sulfated polysaccharides” (Baxter Healthcare S.A., priority 2004, dated 2014).
